Reference: ChEMBL document CHEMBL1201862, “PubChem BioAssay data set” (2004)
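Briefly, cells in 96-well plates were exposed to five compound concentrations for 48 h, and endpoints were estimated by linear interpolation. GI50: concentration for 50% inhibition of growth.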 Calls of active or inactive are those of the source. No stated cut-off is given here; in the data, active = GI50 up to about 1.1 µM and inactive = higher.

Experiments:
Experiment in all cases: DTP human tumour cell line panel, 48 h
HCC 2998 = test system: HCC 2998
HT-29 = test system: HT-29
PC-3 = test system: PC-3
LOX IMVI = test system: LOX IMVI
IGROV-1 = test system: IGROV-1
RPMI-8226 = test system: RPMI-8226
COLO 205 = test system: COLO 205
MDA-MB-231 = test system: MDA-MB-231
NCI-H522 = test system: NCI-H522
MCF7 = test system: MCF7
ACHN = test system: ACHN
OVCAR-5 = test system: OVCAR-5
HOP-62 = test system: HOP-62
786-0 = test system: 786-0
NCI-H23 = test system: NCI-H23
SW-620 = test system: SW-620
OVCAR-4 = test system: OVCAR-4
UACC-257 = test system: UACC-257
K562 = test system: K562
NCI/ADR-RES = test system: NCI/ADR-RES
UACC-62 = test system: UACC-62
MDA-MB-435 = test system: MDA-MB-435
SF-539 = test system: SF-539
A549 = test system: A549
DU-145 = test system: DU-145
NCI-H226 = test system: NCI-H226
SK-MEL-28 = test system: SK-MEL-28
KM12 = test system: KM12
U-251 = test system: U-251
NCI-H460 = test system: NCI-H460
OVCAR-3 = test system: OVCAR-3
HCT-116 = test system: HCT-116
TK-10 = test system: TK-10
CCRF-CEM = test system: CCRF-CEM
Malme-3M = test system: Malme-3M
M14 = test system: M14
SK-MEL-5 = test system: SK-MEL-5
SK-OV-3 = test system: SK-OV-3
SN12C = test system: SN12C
T47D = test system: T47D
Hs-578T = test system: Hs-578T
A498 = test system: A498
SR = test system: SR
CAKI-1 = test system: CAKI-1
MDA-N = test system: MDA-N
SNB-75 = test system: SNB-75
HCT-15 = test system: HCT-15
RXF 393 = test system: RXF 393
UO-31 = test system: UO-31
BT-549 = test system: BT-549
HOP-92 = test system: HOP-92
EKVX = test system: EKVX
HL-60 = test system: HL-60
SK-MEL-2 = test system: SK-MEL-2
OVCAR-8 = test system: OVCAR-8
SNB-19 = test system: SNB-19
MOLT-4 = test system: MOLT-4
SF-268 = test system: SF-268
SF-295 = test system: SF-295

## c1ccc([P+](CC[P+](c2ccccc2)(c2ccccc2)c2ccccc2)(c2ccccc2)c2ccccc2)cc1
HCC 2998
  GI50: 7.78 µM (inactive)
HT-29
  GI50: 23.4 µM (inactive)
PC-3
  GI50: 6.27 µM (inactive)
LOX IMVI
  GI50: 63 µM (inactive)
IGROV-1
  GI50: 38 µM (inactive)
RPMI-8226
  GI50: 0.693 µM (active)
COLO 205
  GI50: 8.81 µM (inactive)
MDA-MB-231
  GI50: 38.6 µM (inactive)
NCI-H522
  GI50: 3.1 µM (inactive)
MCF7
  GI50: 32.1 µM (inactive)
ACHN
  GI50: 19.2 µM (inactive)
OVCAR-5
  GI50: 44.4 µM (inactive)
HOP-62
  GI50: 26.4 µM (inactive)
786-0
  GI50: 21.9 µM (inactive)
NCI-H23
  GI50: 26.3 µM (inactive)
SW-620
  GI50: 3.62 µM (inactive)
OVCAR-4
  GI50: 34.3 µM (inactive)
UACC-257
  GI50: 1.19 µM (inactive)
K562
  GI50: 2.44 µM (inactive)
NCI/ADR-RES
  GI50: 61.4 µM (inactive)
UACC-62
  GI50: 25.6 µM (inactive)
MDA-MB-435
  GI50: 9.64 µM (inactive)
SF-539
  GI50: 9.42 µM (inactive)
A549
  GI50: 2.49 µM (inactive)
DU-145
  GI50: 48.9 µM (inactive)
NCI-H226
  GI50: > 56.8 µM (inactive)
SK-MEL-28
  GI50: 13.7 µM (inactive)
KM12
  GI50: 15.2 µM (inactive)
U-251
  GI50: 2.94 µM (inactive)
NCI-H460
  GI50: 5.79 µM (inactive)
OVCAR-3
  GI50: 13 µM (inactive)
HCT-116
  GI50: 16.5 µM (inactive)
TK-10
  GI50: 12.3 µM (inactive)
CCRF-CEM
  GI50: 0.25 µM (active)
Malme-3M
  GI50: 14.1 µM (inactive)
M14
  GI50: 22.3 µM (inactive)
SK-MEL-5
  GI50: 8.79 µM (inactive)
SK-OV-3
  GI50: > 84.9 µM (inactive)
SN12C
  GI50: 9.31 µM (inactive)
T47D
  GI50: 4.34 µM (inactive)
Hs-578T
  GI50: 7.98 µM (inactive)
A498
  GI50: 5.87 µM (inactive)
SR
  GI50: 14.7 µM (inactive)
CAKI-1
  GI50: 61.8 µM (inactive)
MDA-N
  GI50: 14.4 µM (inactive)
SNB-75
  GI50: 20.1 µM (inactive)
HCT-15
  GI50: 29 µM
RXF 393
  GI50: 27.4 µM (inactive)
UO-31
  GI50: > 46.1 µM (inactive)
BT-549
  GI50: 42.3 µM (inactive)
HOP-92
  GI50: 32.6 µM (inactive)
EKVX
  GI50: 4.76 µM (inactive)
HL-60
  GI50: 0.396 µM (active)
SK-MEL-2
  GI50: 9.38 µM (inactive)
OVCAR-8
  GI50: 4.82 µM (inactive)
SNB-19
  GI50: 47.4 µM (inactive)
MOLT-4
  GI50: 12.6 µM (inactive)
SF-268
  GI50: 6.05 µM (inactive)
SF-295
  GI50: 33.7 µM (inactive)

## CC(C)(C)NCC(O)c1ccc(O)c(CO)n1 (centres undefined)
HCC 2998
  GI50: > 100 µM (inactive)
HT-29
  GI50: > 100 µM (inactive)
PC-3
  GI50: > 100 µM (inactive)
LOX IMVI
  GI50: > 100 µM (inactive)
IGROV-1
  GI50: > 100 µM (inactive)
RPMI-8226
  GI50: > 100 µM (inactive)
COLO 205
  GI50: > 100 µM (inactive)
MDA-MB-231
  GI50: > 100 µM (inactive)
NCI-H522
  GI50: > 100 µM (inactive)
MCF7
  GI50: > 100 µM (inactive)
ACHN
  GI50: > 100 µM (inactive)
OVCAR-5
  GI50: > 100 µM (inactive)
HOP-62
  GI50: > 100 µM (inactive)
786-0
  GI50: > 100 µM (inactive)
NCI-H23
  GI50: > 100 µM (inactive)
SW-620
  GI50: > 100 µM (inactive)
OVCAR-4
  GI50: > 100 µM (inactive)
UACC-257
  GI50: > 100 µM (inactive)
NCI/ADR-RES
  GI50: > 100 µM (inactive)
UACC-62
  GI50: > 100 µM (inactive)
MDA-MB-435
  GI50: > 100 µM (inactive)
SF-539
  GI50: > 100 µM (inactive)
A549
  GI50: > 100 µM (inactive)
DU-145
  GI50: > 100 µM (inactive)
NCI-H226
  GI50: > 100 µM (inactive)
SK-MEL-28
  GI50: > 100 µM (inactive)
KM12
  GI50: > 100 µM (inactive)
U-251
  GI50: > 100 µM (inactive)
NCI-H460
  GI50: > 100 µM (inactive)
OVCAR-3
  GI50: > 100 µM (inactive)
HCT-116
  GI50: > 100 µM (inactive)
TK-10
  GI50: > 100 µM (inactive)
M14
  GI50: > 100 µM (inactive)
SK-MEL-5
  GI50: > 100 µM (inactive)
SK-OV-3
  GI50: > 100 µM (inactive)
SN12C
  GI50: > 100 µM (inactive)
T47D
  GI50: > 100 µM (inactive)
Hs-578T
  GI50: > 100 µM (inactive)
A498
  GI50: > 100 µM (inactive)
SR
  GI50: > 100 µM (inactive)
CAKI-1
  GI50: > 100 µM (inactive)
MDA-N
  GI50: > 100 µM (inactive)
SNB-75
  GI50: > 100 µM (inactive)
HCT-15
  GI50: > 100 µM
RXF 393
  GI50: > 100 µM (inactive)
UO-31
  GI50: > 100 µM (inactive)
BT-549
  GI50: > 100 µM (inactive)
HOP-92
  GI50: > 100 µM (inactive)
EKVX
  GI50: > 100 µM (inactive)
HL-60
  GI50: > 100 µM (inactive)
SK-MEL-2
  GI50: > 100 µM (inactive)
OVCAR-8
  GI50: > 100 µM (inactive)
SNB-19
  GI50: > 100 µM (inactive)
MOLT-4
  GI50: > 100 µM (inactive)
SF-268
  GI50: > 100 µM (inactive)
SF-295
  GI50: > 100 µM (inactive)

## CC(=C(C(=O)O)C(=O)O)c1cc(-c2cccs2)cc(-c2ccc(Cl)cc2)c1O
HCC 2998
  GI50: 18.5 µM (inactive)
HT-29
  GI50: 17.3 µM (inactive)
PC-3
  GI50: 13.6 µM (inactive)
LOX IMVI
  GI50: 13.2 µM (inactive)
IGROV-1
  GI50: 15.2 µM (inactive)
RPMI-8226
  GI50: 2.78 µM (inactive)
COLO 205
  GI50: 22.4 µM (inactive)
MDA-MB-231
  GI50: 18.2 µM (inactive)
NCI-H522
  GI50: 14.3 µM (inactive)
MCF7
  GI50: 5.47 µM (inactive)
ACHN
  GI50: 15.8 µM (inactive)
OVCAR-5
  GI50: 29.4 µM (inactive)
HOP-62
  GI50: 24.1 µM (inactive)
786-0
  GI50: 15.2 µM (inactive)
NCI-H23
  GI50: 17.3 µM (inactive)
SW-620
  GI50: 18.7 µM (inactive)
OVCAR-4
  GI50: 26.7 µM (inactive)
UACC-257
  GI50: 16.7 µM (inactive)
K562
  GI50: 5.3 µM (inactive)
NCI/ADR-RES
  GI50: 20.3 µM (inactive)
UACC-62
  GI50: 15.3 µM (inactive)
MDA-MB-435
  GI50: 15.6 µM (inactive)
SF-539
  GI50: 14.6 µM (inactive)
A549
  GI50: 20.7 µM (inactive)
DU-145
  GI50: 14.4 µM (inactive)
NCI-H226
  GI50: 21.2 µM (inactive)
SK-MEL-28
  GI50: 17.5 µM (inactive)
KM12
  GI50: 9.04 µM (inactive)
U-251
  GI50: 14.3 µM (inactive)
NCI-H460
  GI50: 17.1 µM (inactive)
OVCAR-3
  GI50: 14.9 µM (inactive)
HCT-116
  GI50: 13.8 µM (inactive)
TK-10
  GI50: 16.2 µM (inactive)
CCRF-CEM
  GI50: 18.7 µM (inactive)
Malme-3M
  GI50: 21.6 µM (inactive)
M14
  GI50: 17.7 µM (inactive)
SK-MEL-5
  GI50: 19.3 µM (inactive)
SK-OV-3
  GI50: 33.7 µM (inactive)
SN12C
  GI50: 15.9 µM (inactive)
T47D
  GI50: 6.68 µM (inactive)
Hs-578T
  GI50: > 42.7 µM (inactive)
A498
  GI50: 16 µM (inactive)
SR
  GI50: 3.67 µM (inactive)
CAKI-1
  GI50: 17.4 µM (inactive)
MDA-N
  GI50: 16.3 µM (inactive)
SNB-75
  GI50: 18 µM (inactive)
HCT-15
  GI50: 14 µM
RXF 393
  GI50: 14 µM (inactive)
UO-31
  GI50: 11.9 µM (inactive)
BT-549
  GI50: 15.7 µM (inactive)
HOP-92
  GI50: 14.9 µM (inactive)
EKVX
  GI50: 17.3 µM (inactive)
HL-60
  GI50: 9.71 µM (inactive)
SK-MEL-2
  GI50: 32.4 µM (inactive)
OVCAR-8
  GI50: 19.2 µM (inactive)
SNB-19
  GI50: 15.7 µM (inactive)
MOLT-4
  GI50: 6.41 µM (inactive)
SF-268
  GI50: 17.9 µM (inactive)
SF-295
  GI50: 17.9 µM (inactive)
